Reference: patent publication EP0462830B1, “Cyclic ether derivatives” (ZENECA LIMITED, priority 1990, dated 1991)

Columns and labels:
5-LO [1] = biological target: T1, 5-LO (Homo sapiens, UniProt P09917); experiment: Test b): heparinised human blood challenged with calcium ionophore A23187, radioimmunoassay of LTB₄; assay type: cell-based; settings: read-out: IC₅₀ (LTB₄)
T1 construct: incubating a test compound with heparinised human blood, prior to challenge with the calcium ionophore A23187; endogenous in cells; host or cells: leukocytes in heparinised human whole blood
T1 sequence (P09917 1-674): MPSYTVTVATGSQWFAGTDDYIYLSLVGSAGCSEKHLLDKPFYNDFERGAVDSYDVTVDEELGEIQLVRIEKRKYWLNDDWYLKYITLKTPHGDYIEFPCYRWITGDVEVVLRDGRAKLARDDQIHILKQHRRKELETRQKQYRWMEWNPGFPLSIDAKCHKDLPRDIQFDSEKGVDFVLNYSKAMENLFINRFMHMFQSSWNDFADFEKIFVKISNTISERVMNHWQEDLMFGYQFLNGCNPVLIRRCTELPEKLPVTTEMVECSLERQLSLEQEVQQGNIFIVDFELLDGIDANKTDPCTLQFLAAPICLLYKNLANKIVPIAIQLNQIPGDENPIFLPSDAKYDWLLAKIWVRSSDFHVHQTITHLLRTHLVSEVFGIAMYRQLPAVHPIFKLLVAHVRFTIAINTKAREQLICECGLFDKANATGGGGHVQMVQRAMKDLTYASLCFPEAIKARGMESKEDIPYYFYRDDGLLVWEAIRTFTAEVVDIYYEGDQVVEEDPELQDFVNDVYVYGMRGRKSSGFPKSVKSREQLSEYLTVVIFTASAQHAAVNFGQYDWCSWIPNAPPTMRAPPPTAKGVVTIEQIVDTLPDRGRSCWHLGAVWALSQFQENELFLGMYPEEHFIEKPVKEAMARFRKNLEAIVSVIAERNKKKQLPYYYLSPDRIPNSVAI
Protocol: This test provides a measure of the intrinsic inhibitory properties of a test compound against soluble 5-LO in an extracellular environment. • b) An in vitro assay system involving incubating a test compound with heparinised human blood, prior to challenge with the calcium ionophore A23187 and then indirectly measuring the inhibitory effects on 5-LO by assaying the amount of LTB₄ using specific radioimmunoassays described by Carey and Forder (F. Carey and R.A. Forder, Prostaglandins, Leukotrienes Med., 1986, 22, 57; Prostaglandins, 1984, 28, 666; Brit. J. Pharmacol. 1985, 84, 34P) which involve the use of a protein-LTB₄ conjugate produced using the procedure of Young et alia (Prostaglandins, 1983, 26(4), 605-613). […] This test provides an indication of the effects of a test compound against 5-LO and also cyclooxygenase in the presence of blood cells and proteins.

5-LO [2] = experiment: Test g): zymosan-induced liberation of LTB₄ within a subcutaneous air pouch of male rats; assay type: in vivo; settings: rat air pouch

In the case of `CSC1(c2cccc(OCc3ccc4ccccc4c3)c2)CCOCC1` [Example 1, 4-methylthio-4-[3-(naphth-2-ylmethoxy)phenyl]tetrahydropyran], the IC50 (5-LO [1]) is reported as 0.05 µM and the “oral ED₅₀(LTB₄)” value (5-LO [2]) is reported as 8 mg/kg.
